In patent US6429229B1, “Keto acid salts and amine derivatives, and their use for preparing medicines” (Chiesi S.A., priority 1998, dated 2002):

Key:
colic distension in rat [1] = test: Colic distension in rat (colon irritated with 1% acetic acid, balloon distension, abdominal cramps counted); assay type: in vivo; conditions: for Mean number of abdominal cramps ± standard error: 10 min colic distension, * = different from placebo at p < 0.05 (Dunnett); for Activity in the model of colic distension (in words) / Dose at/from which active in colic distension: oral route; for Activity in the model of colic distension (in words): 1 to 20 mg/kg
Source text: This physiopathological mechanism inspired the creation of the model of distension of the colon first irritated with 1% acetic acid, in rat. […] IIS is characterized by the presence of abdominal pain. Patients having this pathology have a lowered threshold of digestive sensitivity.
The analgesic activity was studied on the model of digestive pain in observed rat. This pain is brought about by distension of the colon with a balloon.
Male Sprague-Dawley rats of about 180 g, fasted from the day before, are used. Under light fluothane anesthesia, an intrarectal probe is introduced 5 cm into the anus and 1.5 ml of 1% acetic acid is injected. An hour and 30 minutes after irritation, a latex balloon (empty diameter 2 mm, length 1 cm) mounted on a polyethylene catheter is introduced into the colon to the site of the irritation.
The product to be tested or the vehicle (distilled water) is administered per os in a volume of 1 ml, then the rat is observed on a Petri dish.
Distension of the colon is carried out 2 hours and 20 minutes after irritation. It is effected at a fixed volume of 1.5 ml of distilled water. The colic distension gives rise to digestive pain manifested by abdominal cramps whose number reflects the intensity of the pain. The colic distension is maintained for 10 minutes in the course of which the abdominal cramps are counted.
Statistical analysis is carried out with the help of the Dunnett test which compares a same group of vehicle animals (40) to several groups of rats (six animals per group) having received the studied molecules. The threshold of significance is fixed at 5%.
The molecules are tested by the oral route at 1-10-20 mg/kg. They are dissolved in distilled water.
The vehicle used as placebo is comprised by distilled water.
Comparative tests 1 to 5 are products available commercially and are used as such, except ornithine chlorhydrate which is salted out by methods known in the literature and stored in solution in water.

writhing test in mice = conditions: 500 and 1000 mg/kg by intravenous route in mice; cited from earlier work
somatic pain test in rat = conditions: doses between 300 and 1000 mg/kg by subcutaneous route in rat; cited from earlier work
colic distension in rat [2] = conditions: cited from earlier work; for Activity on the model of colic distension (in words): background statement
[3] = tested on: writhing test in rat or a mouse; conditions: i.p. phenylbenzoquinone or 3% acetic acid; cited from earlier work

## O=C(O)CCC(=O)C(=O)O [Comparison 1, α-keto-glutaric acid]
Colic distension in rat [1]; 1 mg/kg p.o.
  Mean number of abdominal cramps ± standard error: 17 ± 1
Colic distension in rat [1]; 10 mg/kg p.o.
  Mean number of abdominal cramps ± standard error: 17 ± 4
Colic distension in rat [1]; 20 mg/kg p.o.
  Mean number of abdominal cramps ± standard error: 22 ± 6
Colic distension in rat [1]
  Activity in the model of colic distension (in words): inactive

## Cl.NCCC[C@H](N)C(=O)O [Comparison 2, Ornithine, HCl]
Writhing test in mice
  Activity in the writhing test (in words): active
Somatic pain test in rat
  Activity in a somatic pain test (in words): active
Colic distension in rat [1]; 1 mg/kg p.o.
  Mean number of abdominal cramps ± standard error: 20 ± 3
Colic distension in rat [1]; 10 mg/kg p.o.
  Mean number of abdominal cramps ± standard error: 19 ± 6
Colic distension in rat [1]; 20 mg/kg p.o.
  Mean number of abdominal cramps ± standard error: 18 ± 6
Colic distension in rat [1]
  Activity in the model of colic distension (in words): inactive

## CCC(=O)C(=O)O [Comparison 3, α-keto-butyric acid]
Colic distension in rat [1]; 1 mg/kg p.o.
  Mean number of abdominal cramps ± standard error: 19 ± 2
Colic distension in rat [1]; 10 mg/kg p.o.
  Mean number of abdominal cramps ± standard error: 20 ± 3
Colic distension in rat [1]; 20 mg/kg p.o.
  Mean number of abdominal cramps ± standard error: 19 ± 3
Colic distension in rat [1]
  Activity in the model of colic distension (in words): inactive

## NC(=O)CC[C@H](N)C(=O)O [Comparison 4, Glutamine]
Colic distension in rat [1]; 1 mg/kg p.o.
  Mean number of abdominal cramps ± standard error: 21 ± 2
Colic distension in rat [1]
  Dose at/from which active in colic distension: 10 mg/kg
Colic distension in rat [2]; 6 mg/kg by rectal route in rat (local administration on the irritated colic mucosa)
  Activity in the test of colic distension (in words): active

## N=C(N)NCCC[C@H](N)C(=O)O [Comparison 5, Arginine]
Colic distension in rat [1]; 1 mg/kg p.o.
  Mean number of abdominal cramps ± standard error: 20 ± 6
Colic distension in rat [1]; 10 mg/kg p.o.
  Mean number of abdominal cramps ± standard error: 20 ± 9
Colic distension in rat [1]
  Dose at/from which active in colic distension: ≥ 20 mg/kg

## CN1CC[C@]23c4c5ccc(O)c4O[C@H]2[C@@H](O)C=C[C@H]3[C@H]1C5 [Morphine]
Colic distension in rat [2]
  Activity on the model of colic distension (in words): active

## CC(=O)Oc1ccccc1C(=O)O [aspirin]
[3]
  Activity in the writhing test (in words): active
Colic distension in rat [2]
  Activity on the model of colic distension (in words): inactive

## CC(=O)Nc1ccc(O)cc1 [paracetamol]
[3]
  Activity in the writhing test (in words): active
Colic distension in rat [2]
  Activity on the model of colic distension (in words): inactive

## Di-arginine Keto-glutarate [Example 3]
Colic distension in rat [1]; 1 mg/kg p.o.
  Mean number of abdominal cramps ± standard error: 17 ± 9

## Di-ornithine Keto-glutarate [Example 2]
Colic distension in rat [1]
  Dose at/from which active in colic distension: 1 mg/kg

## Mono-ornithine Keto-butyrate [Example 6]
Colic distension in rat [1]
  Dose at/from which active in colic distension: ≥ 1 mg/kg

## Mono-ornithine Keto-glutarate [Example 1]
Colic distension in rat [1]
  Dose at/from which active in colic distension: 1 mg/kg

## Ornithine and Arginine Keto-glutarate [Example 4]
Colic distension in rat [1]; 1 mg/kg p.o.
  Mean number of abdominal cramps ± standard error: 18 ± 2

## Ornithine and Glutamine Keto-glutarate [Example 5]
Colic distension in rat [1]
  Dose at/from which active in colic distension: ≥ 1 mg/kg
